The values that follow come from patent publication US20160263048A1, “BIOADHESIVE POLYMER-BASED CONTROLLED-RELEASE SYSTEMS, PRODUCTION PROCESS AND CLINICAL USES THEREOF” (priority 2010, published 2016).

Where two headings read alike, the source gives them in different places.

One series is described as follows: Solubility in water. Conditions: molar ratio TrA/HPβCD 1:10. It counts as physicochemical. The source says:
Currently used cyclodextrins are preferably semi-synthetic derivatives of β-cyclodextrin, soluble in highly polar organic solvents, marketed by Roquette or Wacker such as hydroxypropyl-βCD (HPβCD) and Methyl-βCD. The HPβCD marketed by Roquette under the name Kleptose® HP is an amorphous white powder, with a solubility in water higher than 1 g/ml. Further to this, it has a good stability both in acidic and in basic milieu and can be used to administrate drugs both by injection and by the oral route. The second one, under the name Kleptose® Crysmeb® exp, is a mixture of cyclodextrins which contain from one to seven methyl groups. Crysmeb® has an average of 4 methyl groups for one cyclodextrin molecule and has an average molecular weight of 1191 dalton. It is a white powder, easily soluble in water and its solubility grows with the temperature, and, in addition, it is very stable both in and acidic and in basic milieus.
Such a capability was tested for the buccal release of triamcinolone acetonide (TrA), a corticosteroid drug poorly soluble in water. According to the European Pharmacopeia, TrA is a drug that is practically not soluble in water, since its solubility in this vehicle is about 0.02 mg/ml. The presence of HPβCD in the film enhances TrA solubility by 600 fold, i.e., to about […] (molar ratio TrA/HPβCD 1:10). […]

For series [1] the following is noted: cited from earlier work.

For `CC1(C)O[C@@H]2C[C@H]3[C@@H]4CCC5=CC(=O)C=C[C@]5(C)[C@@]4(F)[C@@H](O)C[C@]3(C)[C@]2(C(=O)CO)O1` [TrA, triamcinolone acetonide], the “enhancement of TrA solubility by presence of HPβCD” value in “Solubility in water” is given as 600 fold. The “TrA solubility in presence of HPβCD” value in the series “Solubility in water” (no further enhancement at higher HPβCD concentration) is “about 4 % w/v”. The solubility in water result in series [1] (according to the European Pharmacopeia) is reported as “about 0.02 mg/ml”.

With hydroxypropyl-βCD [HPβCD], the solubility in water entry in series [1] (Kleptose® HP marketed by Roquette) is on record as “higher than 1 g/ml”.
